Source: patent US9867795B2, “Nitrated lipids and methods of making and using thereof” (The UAB Research Foundation, priority 2004, dated 2018)

Legend:
[1] = •NO release from LNO2 by oxymyoglobin oxidation
Protocol: Apparent •NO formation was calculated from extents of oxymyoglobin oxidation in the visible wavelength range (spectrum) and at 580 nm (kinetic mode). Initial oxymyoglobin oxidation was calculated using a UV probe Version 1.10 (ε580 14.4 mM^−1 cm^−1). Decomposition of the NO2 group was followed at 268 nm and the appearance of oxidized products at 320 nm.
To monitor the concomitant decomposition of the parent LNO2 molecule, its UV spectrum was first analyzed. […] The decrease in absorbance at 268 nm paralleled •NO release, as detected by both EPR and oxymyoglobin oxidation.
(§1) The formation of •NO was followed by EPR (measuring cPTI formation) in the presence of different concentrations of octyl-β-glucopyranoside (OG) and octyl-thio-β-glucopyranoside (OTG). The rate of •NO release was constant and not influenced by these detergents until the critical micellar concentration (CMC) for each was achieved, after which •NO formation was inhibited as the volume of the hydrophobic environment increased (FIG. 24A). Similar results were obtained when measuring •NO formation via conversion of oxymyoglobin to metmyoglobin. Apparent •NO release rates remained constant until OG concentration reached ˜2.8 mg/ml (CMC=2.77 mg/ml (11)). […] The inhibition of the NO2 group loss at 268 nm was paralleled by inhibition of the formation of oxidation products at 320 nm, similarly paralleling the detergent-induced inhibition of •NO release observed by EPR and oxymyoglobin-based detection.

[2] = Hydrophobic stabilization and micellar partition of LNO2; type: physicochemical
From the text: as §1
Thus, a plot of 1/v vs. α will yield a linear plot with slope divided by y-axis intercept equal to K−1.

[3] = pH dependency of •NO formation from LNO2 (EPR, cPTIO reduction); details: 80 μM LNO2, buffers with different pHs
Protocol: Electron paramagnetic resonance—EPR measurements were performed at room temperature using a Bruker Elexsys E-500 spectrometer equipped with an ER049X microwave bridge and an AquaX liquid sample cell. The following instrument setting were used: modulation frequency, 100 kHz; modulation amplitude, 0.05 G; receiver gain, 60 dB; time constant, 1.28 ms; sweep time, 5.24 s; center field, 3510 G; sweep width, 100 G; power, 20 mW; scan parameter, 16 scans.
Due to limitations of the •NO-cPTIO reaction for quantitating yields of NO, oxymyoglobin was utilized to measure •NO release rates (24).

[4] = LNO2 130 μM, oxymyoglobin 20 μM

Substance: 10-nitro-9,12-octadecadienoic acid and 12-nitro-9,12-octadecadienoic acid [LNO2]
- apparent rate constant for •NO release ([1]; 100 mM phosphate buffer, 100 μM DTPA, pH 7.4, oxymyoglobin to metmyoglobin): 9.67e-06 s⁻¹
- OG concentration up to which apparent •NO release rates remained constant [1, 4]: ~2.8 mg/mL
- OTG concentration at which inhibition of LNO2-dependent •NO release occurred [1, 4]: ~7 mg/mL
- partition coefficient K ([2]; FIG. 28 legend): ~1500
- stability in organic solvents ([2]; organic solvents such as n-octanol): stable
- pH of maximal •NO release [3]: 7.4
